Measurements reported in US8431597B2, “Benzimidazole derivatives” (Pfizer Inc., priority 2007, dated 2013).
Counter-ions that a name gives are not always drawn.

Target: T1, Smoothened (SMO) (Mus musculus, UniProt P56726)
T1 construct: C3H10T1/2 cells (ATCC #CCL-226) were split and seeded; endogenous in cells; host or cells: C3H10T1/2 (ATCC #CCL-226)
Assay: Smoothened (SMO)/Sonic Hedgehog (SHh) Transient Transcriptional Activation Assay (Gli-luciferase reporter in C3H10T1/2 cells)
Type: cell-based, murine
Conditions: C3H 10T1/2, 2 μM compound; transfected C3H10T1/2 cells, recombinant human SHh 250 ng/mL, 20 hours, luciferase readout; read-out: SMO CELL % INHIBITION @ 2 μM
Method in brief: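 C3H10T1/2 cells transiently transfected with a murine Gli-responsive firefly luciferase reporter plus pEGFP were serum-starved 20 h in 0.5% calf serum. Compound (2 μM to 2 nM final) was added with recombinant human SHh at 250 ng/mL final for 20 h at 37 °C. Read-out was Dual-Glo luminescence.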

T1 sequence (P56726 33-793): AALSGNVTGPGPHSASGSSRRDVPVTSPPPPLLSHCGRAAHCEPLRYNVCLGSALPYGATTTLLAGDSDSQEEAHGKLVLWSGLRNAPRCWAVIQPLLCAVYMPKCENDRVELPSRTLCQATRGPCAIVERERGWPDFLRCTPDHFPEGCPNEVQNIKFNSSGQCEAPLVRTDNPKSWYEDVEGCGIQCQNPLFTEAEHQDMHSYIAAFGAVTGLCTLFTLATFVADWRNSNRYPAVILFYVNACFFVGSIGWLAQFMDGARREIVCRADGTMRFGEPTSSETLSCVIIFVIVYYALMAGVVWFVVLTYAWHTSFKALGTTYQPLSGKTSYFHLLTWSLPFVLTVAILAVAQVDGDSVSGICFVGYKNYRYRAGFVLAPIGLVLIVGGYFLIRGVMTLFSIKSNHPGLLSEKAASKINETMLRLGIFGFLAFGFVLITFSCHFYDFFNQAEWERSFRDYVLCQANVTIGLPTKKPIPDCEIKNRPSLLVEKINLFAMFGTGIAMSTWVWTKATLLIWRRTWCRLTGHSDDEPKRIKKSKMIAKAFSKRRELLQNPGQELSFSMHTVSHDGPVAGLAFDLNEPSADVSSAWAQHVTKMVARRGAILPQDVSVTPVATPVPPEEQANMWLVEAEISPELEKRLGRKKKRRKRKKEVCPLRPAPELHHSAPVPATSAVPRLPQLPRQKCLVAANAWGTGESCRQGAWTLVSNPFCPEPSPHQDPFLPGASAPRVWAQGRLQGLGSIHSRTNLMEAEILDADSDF

Point of comparison: `CN1CC[C@@H](NC(=O)Cc2ccccc2F)C[C@@H]1c1nc2ccccc2[nH]1` [Example 120, N-[(2R,4R)-2-(1H-benzimidazol-2-yl)-1-methylpiperidin-4-yl]-2-(2-fluorophenyl)acetamide trifluoroacetate], inhibition at 2 µM 63.7%. Against it:
- CN1CC[C@@H](NC(=O)c2cnn3ccccc23)C[C@@H]1c1nc2ccccc2[nH]1 [Example 115, N-[(2R,4R)-2-(1H-benzimidazol-2-yl)-1-methylpiperidin-4-yl]pyrazolo[1,5-a]pyridine-3-carboxamide trifluoroacetate] — higher, 69.6%
- CN1CC[C@@H](NC(=O)Cc2ccc3c(c2)CCO3)C[C@@H]1c1nc2ccccc2[nH]1 [Example 116, N-[(2R,4R)-2-(1H-benzimidazol-2-yl)-1-methylpiperidin-4-yl]-2-(2,3-dihydro-1-benzofuran-5-yl)acetamide trifluoroacetate] — higher, 68.2%
- COc1ccc(C(=O)N[C@@H]2CCN(C)[C@@H](c3nc4ccccc4[nH]3)C2)cc1F [Example 117, N-[(2R,4R)-2-(1H-benzimidazol-2-yl)-1-methylpiperidin-4-yl]-3-fluoro-4-methoxybenzamide trifluoroacetate] — higher, 65.4%
- Cc1cccc2cc(C(=O)N[C@@H]3CCN(C)[C@@H](c4nc5ccccc5[nH]4)C3)nn12 [Example 118, N-[(2R,4R)-2-(1H-benzimidazol-2-yl)-1-methylpiperidin-4-yl]-7-methylpyrazolo[1,5-a]pyridine-2-carboxamide trifluoroacetate] — higher, 65.1%
- CN1CC[C@@H](NC(=O)c2ccc3nonc3c2)C[C@@H]1c1nc2ccccc2[nH]1 [Example 119, N-[(2R,4R)-2-(1H-benzimidazol-2-yl)-1-methylpiperidin-4-yl]-2,1,3-benzoxadiazole-5-carboxamide trifluoroacetate] — higher, 64.5%
- CN1CC[C@@H](NC(=O)c2ccc(C#N)cc2)C[C@@H]1c1nc2ccccc2[nH]1 [Example 121, N-[(2R,4R)-2-(1H-benzimidazol-2-yl)-1-methylpiperidin-4-yl]-4-cyanobenzamide trifluoroacetate] — lower, 62.3%
- CN1CC[C@@H](NC(=O)C(F)(F)c2ccccc2)C[C@@H]1c1nc2ccccc2[nH]1 [Example 122, N-[(2R,4R)-2-(1H-benzimidazol-2-yl)-1-methylpiperidin-4-yl]-2(2-difluoro-2-phenylacetamide trifluoroacetate] — lower, 57.5%
- CN1CC[C@@H](NC(=O)Cc2cccc(F)c2)C[C@@H]1c1nc2ccccc2[nH]1 [Example 123, N-[(2R,4R)-2-(1H-benzimidazol-2-yl)-1-methylpiperidin-4-yl]-2-(3-fluorophenyl)acetamide trifluoroacetate] — lower, 52.2%
- Cc1cc(C(=O)N[C@@H]2CCN(C)[C@@H](c3nc4ccccc4[nH]3)C2)n(C(C)(C)C)n1 [Example 124, N-[(2R,4R)-2-(1H-benzimidazol-2-yl)-1-methylpiperidin-4-yl]-1-tert-butyl-3-methyl-1H-pyrazole-5-carboxamide trifluoroacetate] — lower, 50.6%
- O=C(N[C@@H]1CCN(C2CC2)[C@@H](c2nc3ccccc3[nH]2)C1)c1ccc2c(c1)OCCO2 [Example 125, N-[(2R,4R)-2-(1H-benzimidazol-2-yl)-1-cyclopropylpiperidin-4-yl]-2,3-dihydro-1,4-benzodioxine-6-carboxamide hydrochloride] — higher, 102%
- Cc1ccc(NC(=O)N[C@@H]2CCN(C)[C@@H](c3nc4ccc(Cl)cc4[nH]3)C2)cn1 [Example 126, 1-[(2R,4R)-2-(6-chloro-1H-benzimidazol-2-yl)-1-methylpiperidin-4-yl]-3-(6-methylpyridin-3-yl)urea hydrochloride] — higher, 110%
- Cc1ccc(NC(=O)N[C@@H]2CCN(C)[C@@H](c3nc4cc(C#N)ccc4[nH]3)C2)cn1 [Example 127, 1-[(2R,4R)-2-(5-cyano-1H-benzimidazol-2-yl)-1-methylpiperidin-4-yl]-3-(6-methylpyridin-3-yl)urea hydrochloride] — higher, 103%
- Cc1ccc(NC(=O)N[C@@H]2CCN(C)[C@@H](c3nc4cc(C(F)(F)F)ccc4[nH]3)C2)cn1 [Example 128, 1-(6-methylpyridin-3-yl)-3-{(2R,4R)-1-methyl-2-[5-(trifluoromethyl)-1H-benzimidazol-2-yl]piperidin-4-yl}urea hydrochloride] — higher, 102%
- COc1ccc2[nH]c([C@H]3C[C@H](NC(=O)Nc4ccc(C)nc4)CCN3C)nc2c1 [Example 129, 1-[(2R,4R)-2-(5-methoxy-1H-benzimidazol-2-yl)-1-methylpiperidin-4-yl]-3-(6-methylpyridin-3-yl)urea hydrochloride] — higher, 104%
- Cc1ccc2[nH]c([C@H]3C[C@H](NC(=O)Nc4ccc(C)nc4)CCN3C)nc2c1 [Example 130, 1-[(2R,4R)-1-methyl-2-(5-methyl-1H-benzimidazol-2-yl)piperidin-4-yl]-3-(6-methylpyridin-3-yl)urea hydrochloride] — higher, 106%
- Cc1ccc(NC(=O)N[C@@H]2CCN(C)[C@@H](c3nc4cc(C)c(C)cc4[nH]3)C2)cn1 [Example 131, 1-[(2R(4R)-2-(5,6-dimethyl-1H-benzimidazol-2-yl)-1-methylpiperidin-4-yl]-3-(6-methylpyridin-3-yl)urea hydrochloride] — higher, 105%
- Cc1ccc(NC(=O)N[C@@H]2CCN(C)[C@@H](c3nc4ccc(F)cc4[nH]3)C2)cn1 [Example 132, 1-[(2R,4R)-2-(6-fluoro-1H-benzimidazol-2-yl)-1-methylpiperidin-4-yl]-3-(6-methylpyridin-3-yl)urea hydrochloride] — higher, 108%
- COc1ccc(NC(=O)N[C@@H]2CCN(C)[C@@H](c3nc4ccc(Cl)cc4[nH]3)C2)cn1 [Example 133, 1-[(2R,4R)-2-(6-chloro-1H-benzimidazol-2-yl)-1-methylpiperidin-4-yl]-3-(6-methoxypyridin-3-yl)urea hydrochloride] — higher, 108%
- COc1ccc(NC(=O)N[C@@H]2CCN(C)[C@@H](c3nc4cc(C#N)ccc4[nH]3)C2)cn1 [Example 134, 1-[(2R,4R)-2-(5-cyano-1H-benzimidazol-2-yl)-1-methylpiperidin-4-yl]-3-(6-methoxypyridin-3-yl)urea hydrochloride] — higher, 105%
- COc1ccc(NC(=O)N[C@@H]2CCN(C)[C@@H](c3nc4cc(C(F)(F)F)ccc4[nH]3)C2)cn1 [Example 135, 1-(6-methoxypyridin-3-yl)-3-{(2R,4R)-1-methyl-2-[5-(trifluoromethyl)-1H-benzimidazol-2-yl]piperidin-4-yl}urea hydrochloride] — higher, 104%
- COc1ccc2[nH]c([C@H]3C[C@H](NC(=O)Nc4ccc(OC)nc4)CCN3C)nc2c1 [Example 136, 1-[(2R,4R)-2-(5-methoxy-1H-benzimidazol-2-yl)-1-methylpiperidin-4-y)]-3-(6-methoxypyridin-3-yl)urea hydrochloride] — higher, 106%
- COc1ccc(NC(=O)N[C@@H]2CCN(C)[C@@H](c3nc4cc(C)ccc4[nH]3)C2)cn1 [Example 137, 1-{6-methoxypyridin-3-yl)-3-[(2R.4R)-1-methyl-2-(5-methyl-1H-benzimidazol-2-yl)piperidin-4-yl]urea hydrochloride] — higher, 102%
- COc1ccc(NC(=O)N[C@@H]2CCN(C)[C@@H](c3nc4cc(C)c(C)cc4[nH]3)C2)cn1 [Example 138, 1-[(2R,4R)-2-(5,6-dimethyl-1H-benzimidazol-2-yl)-1-methylpiperidin-4-yl]-3-(6-methoxypyridin-3-yl)urea hydrochloride] — higher, 108%
- COc1ccc(NC(=O)N[C@@H]2CCN(C)[C@@H](c3nc4ccc(F)cc4[nH]3)C2)cn1 [Example 139, 1-[(2R,4R)-2-(6-fluoro-1H-benzimidazol-2-yl)-1-methylpiperidin-4-yl]-3-(6-methoxypyridin-3-yl)urea hydrochloride] — higher, 106%
- CN1CC[C@@H](NC(=S)c2ccc3c(c2)OCCO3)C[C@@H]1c1nc2ccccc2[nH]1 [Example 140, N-[(2R,4R)-2-(1H-benzimidazol-2-yl)-1-methylpiperidin-4-yl]-2,3-dihydro-1,4-benzodioxine-6-carbothioamide hydrochloride] — higher, 107%
- CN1CC[C@@H](NC(=O)c2ccc3c(c2F)OCCO3)C[C@@H]1c1nc2ccccc2[nH]1 [Example 141, N-[(2R,4R)-2-(1H-benzimidazol-2-yl)-1-methylpiperidin-4-yl]-5-fluoro-2,3-dihydro-1,4-benzodioxine-6-carboxamide trifluoroacetate] — higher, 85.3%
- CN1CC[C@@H](NC(=O)c2ccc3c(c2F)OCCO3)C[C@@H]1c1nc2cc(Cl)ccc2[nH]1 [Example 142, N-[(2R,4R)-2-(5-chloro-1H-benzimidazol-2-yl)-1-methylpiperidin-4-yl]-5-fluoro-2,3-dihydro-1,4-benzodioxine-6-carboxamide triflouroacetate] — higher, 101%
- COc1ccc2[nH]c([C@H]3C[C@H](NC(=O)c4ccc5c(c4F)OCCO5)CCN3C)nc2c1 [Example 143, 5-fluoro-N-[(2R,4R)-2-(5-methoxy-1H-benzimidazol-2-yl)-1-methylpiperidin-4-yl]-2,3-dihydro-1,4-benzodioxine-6-carboxamide triflouroacetate] — higher, 83.5%
- CN1CC[C@@H](NC(=O)c2ccc3c(c2Cl)OCCO3)C[C@@H]1c1nc2ccccc2[nH]1 [Example 144, N-[(2R,4R)-2-(1H-benzimidazol-2-yl)-1-methylpiperidin-4-yl]-5-chloro-2,3-dihydro-1,4-benzodioxine-6-carboxamide triflouroacetate] — higher, 108%
